Experimental data taken from patent publication US9676792B2, “Pyrimido-diazepinone compounds and methods of treating disorders” (Dana-Farber Cancer Institute, Inc., priority 2013, dated 2017).
Several values for one entry are separate records, joined by “and”; a condition that tells them apart may be missing. Equal entries are not always repeated. Where two headings read alike, the source gives them in different places. Blank lines part the entries; values can stand above or below the molecule they belong to.

Experiments:
LRRK2 = LRRK2 (Homo sapiens (Human), UniProt Q5S007); settings: cited from earlier work
ERK5 [1] = target: T1, ERK5 (Homo sapiens (Human), UniProt Q13164); settings: cited from earlier work
T1 sequence (Q13164 2-816 limits assumed): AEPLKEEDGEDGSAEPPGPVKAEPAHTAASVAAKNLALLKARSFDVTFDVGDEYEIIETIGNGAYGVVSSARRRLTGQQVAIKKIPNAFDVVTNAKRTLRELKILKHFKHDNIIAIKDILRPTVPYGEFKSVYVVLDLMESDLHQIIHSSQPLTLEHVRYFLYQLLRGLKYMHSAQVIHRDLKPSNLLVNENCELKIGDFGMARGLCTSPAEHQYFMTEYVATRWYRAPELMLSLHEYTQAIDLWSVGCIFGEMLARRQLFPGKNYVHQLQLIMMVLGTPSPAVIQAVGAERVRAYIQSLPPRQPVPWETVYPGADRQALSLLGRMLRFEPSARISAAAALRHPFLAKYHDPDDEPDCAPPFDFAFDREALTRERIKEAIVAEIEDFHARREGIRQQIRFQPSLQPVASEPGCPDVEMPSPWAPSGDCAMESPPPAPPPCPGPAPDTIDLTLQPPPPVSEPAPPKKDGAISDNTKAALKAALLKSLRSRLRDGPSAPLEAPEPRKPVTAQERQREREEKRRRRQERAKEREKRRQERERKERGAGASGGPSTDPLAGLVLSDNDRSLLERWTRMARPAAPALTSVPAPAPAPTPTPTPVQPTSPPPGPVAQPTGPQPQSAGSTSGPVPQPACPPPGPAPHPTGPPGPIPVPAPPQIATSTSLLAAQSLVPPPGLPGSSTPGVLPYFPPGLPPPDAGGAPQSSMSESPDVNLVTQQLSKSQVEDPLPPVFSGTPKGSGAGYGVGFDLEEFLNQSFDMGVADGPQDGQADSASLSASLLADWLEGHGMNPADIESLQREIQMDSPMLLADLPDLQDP

EphB2 [2] = target: T2, EphB2 (Homo sapiens (Human), UniProt P29323); experiment: ActivX kinase profiling; type: binding
T2 sequence (P29323 19-1055): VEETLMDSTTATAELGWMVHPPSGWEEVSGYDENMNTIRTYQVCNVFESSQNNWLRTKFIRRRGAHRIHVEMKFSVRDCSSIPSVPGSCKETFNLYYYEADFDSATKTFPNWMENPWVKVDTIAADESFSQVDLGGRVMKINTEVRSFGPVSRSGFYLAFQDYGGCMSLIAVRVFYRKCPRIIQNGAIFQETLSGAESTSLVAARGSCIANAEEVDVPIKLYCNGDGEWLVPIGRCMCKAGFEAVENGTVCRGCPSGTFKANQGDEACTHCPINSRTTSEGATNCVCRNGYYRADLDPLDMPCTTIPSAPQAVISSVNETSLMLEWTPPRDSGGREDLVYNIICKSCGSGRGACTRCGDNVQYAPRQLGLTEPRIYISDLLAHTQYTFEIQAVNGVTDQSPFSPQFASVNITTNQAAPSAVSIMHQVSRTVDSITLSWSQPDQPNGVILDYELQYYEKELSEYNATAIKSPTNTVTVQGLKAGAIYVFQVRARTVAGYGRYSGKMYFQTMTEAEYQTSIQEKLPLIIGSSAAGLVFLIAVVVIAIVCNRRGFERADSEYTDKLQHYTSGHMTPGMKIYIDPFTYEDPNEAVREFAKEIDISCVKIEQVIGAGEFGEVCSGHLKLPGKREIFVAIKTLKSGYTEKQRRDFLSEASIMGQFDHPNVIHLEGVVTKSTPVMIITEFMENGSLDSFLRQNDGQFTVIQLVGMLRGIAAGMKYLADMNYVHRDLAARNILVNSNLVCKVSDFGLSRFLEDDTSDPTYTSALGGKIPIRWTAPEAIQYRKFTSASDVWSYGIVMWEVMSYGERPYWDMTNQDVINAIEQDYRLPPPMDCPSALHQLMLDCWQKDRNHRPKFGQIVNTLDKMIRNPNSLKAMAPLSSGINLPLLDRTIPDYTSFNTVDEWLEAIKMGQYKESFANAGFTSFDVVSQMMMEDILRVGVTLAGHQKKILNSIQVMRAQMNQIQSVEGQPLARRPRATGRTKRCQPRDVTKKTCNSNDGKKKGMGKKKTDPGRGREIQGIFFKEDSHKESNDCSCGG

EphA2 [3] = target: T3, EphA2 (Homo sapiens (Human), UniProt P29317); experiment: In vitro EphA2 kinase assay, Invitrogen EphA2 Z'-LYTE activity assay; type: biochemical
T3 sequence (P29317 24-976): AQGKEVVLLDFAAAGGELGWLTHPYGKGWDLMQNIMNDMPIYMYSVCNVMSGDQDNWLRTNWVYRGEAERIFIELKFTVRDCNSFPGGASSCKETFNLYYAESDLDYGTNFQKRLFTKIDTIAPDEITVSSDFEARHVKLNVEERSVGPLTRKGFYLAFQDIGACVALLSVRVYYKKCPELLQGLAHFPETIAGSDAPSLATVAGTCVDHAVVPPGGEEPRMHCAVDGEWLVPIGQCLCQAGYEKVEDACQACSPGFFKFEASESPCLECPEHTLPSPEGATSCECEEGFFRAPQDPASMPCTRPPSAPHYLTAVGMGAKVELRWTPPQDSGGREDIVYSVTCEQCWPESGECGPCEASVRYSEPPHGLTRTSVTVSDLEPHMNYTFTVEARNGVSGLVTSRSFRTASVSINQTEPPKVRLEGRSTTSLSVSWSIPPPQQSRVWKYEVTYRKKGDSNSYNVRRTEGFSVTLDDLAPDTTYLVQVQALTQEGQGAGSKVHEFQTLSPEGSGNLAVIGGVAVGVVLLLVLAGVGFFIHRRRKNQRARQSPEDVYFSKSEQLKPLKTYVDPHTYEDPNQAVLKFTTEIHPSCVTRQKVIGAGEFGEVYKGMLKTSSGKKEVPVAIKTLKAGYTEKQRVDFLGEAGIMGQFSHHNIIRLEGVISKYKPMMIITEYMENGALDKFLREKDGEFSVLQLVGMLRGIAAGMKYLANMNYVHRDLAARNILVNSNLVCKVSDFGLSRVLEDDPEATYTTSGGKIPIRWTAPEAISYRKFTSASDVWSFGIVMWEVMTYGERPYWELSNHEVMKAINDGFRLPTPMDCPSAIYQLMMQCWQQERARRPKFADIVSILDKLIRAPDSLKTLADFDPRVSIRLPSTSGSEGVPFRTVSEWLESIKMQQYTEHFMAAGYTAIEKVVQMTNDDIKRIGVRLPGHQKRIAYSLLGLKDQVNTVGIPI
Procedure: Example 13: In Vitro EphA2 Kinase Assay—Invitrogen EphA2 Z′-LYTE Activity Assay
EphA2 kinase assays were performed according to the methods described in Z′-LYTE® Screening Protocol and Assay Conditions at the Life Technologies website (available at http://www.invitrogen.com).

panel of 442 kinases [4] = settings: cited from earlier work
EphA1 = EphA1 (Homo sapiens (Human), UniProt P21709); experiment: Ambit kinase profiling; type: binding
EphA2 [5] = target: T3, EphA2; experiment: Ambit kinase profiling; type: binding
EPHA3 = EPHA3 (Homo sapiens (Human), UniProt P29320); experiment: Ambit kinase profiling; type: binding
EPHA4 = EPHA4 (Homo sapiens (Human), UniProt P54764); experiment: Ambit kinase profiling; type: binding
EPHA5 = EPHA5 (Homo sapiens (Human), UniProt P54756); experiment: Ambit kinase profiling; type: binding
EPHA8 = experiment: Ambit kinase profiling; type: binding
EphA7 = EphA7 (Homo sapiens (Human), UniProt Q15375); experiment: Ambit kinase profiling; type: binding
EPHB1 = EPHB1 (Homo sapiens (Human), UniProt P54762); experiment: Ambit kinase profiling; type: binding
Sequence of EPHB1 (P54762 18-984): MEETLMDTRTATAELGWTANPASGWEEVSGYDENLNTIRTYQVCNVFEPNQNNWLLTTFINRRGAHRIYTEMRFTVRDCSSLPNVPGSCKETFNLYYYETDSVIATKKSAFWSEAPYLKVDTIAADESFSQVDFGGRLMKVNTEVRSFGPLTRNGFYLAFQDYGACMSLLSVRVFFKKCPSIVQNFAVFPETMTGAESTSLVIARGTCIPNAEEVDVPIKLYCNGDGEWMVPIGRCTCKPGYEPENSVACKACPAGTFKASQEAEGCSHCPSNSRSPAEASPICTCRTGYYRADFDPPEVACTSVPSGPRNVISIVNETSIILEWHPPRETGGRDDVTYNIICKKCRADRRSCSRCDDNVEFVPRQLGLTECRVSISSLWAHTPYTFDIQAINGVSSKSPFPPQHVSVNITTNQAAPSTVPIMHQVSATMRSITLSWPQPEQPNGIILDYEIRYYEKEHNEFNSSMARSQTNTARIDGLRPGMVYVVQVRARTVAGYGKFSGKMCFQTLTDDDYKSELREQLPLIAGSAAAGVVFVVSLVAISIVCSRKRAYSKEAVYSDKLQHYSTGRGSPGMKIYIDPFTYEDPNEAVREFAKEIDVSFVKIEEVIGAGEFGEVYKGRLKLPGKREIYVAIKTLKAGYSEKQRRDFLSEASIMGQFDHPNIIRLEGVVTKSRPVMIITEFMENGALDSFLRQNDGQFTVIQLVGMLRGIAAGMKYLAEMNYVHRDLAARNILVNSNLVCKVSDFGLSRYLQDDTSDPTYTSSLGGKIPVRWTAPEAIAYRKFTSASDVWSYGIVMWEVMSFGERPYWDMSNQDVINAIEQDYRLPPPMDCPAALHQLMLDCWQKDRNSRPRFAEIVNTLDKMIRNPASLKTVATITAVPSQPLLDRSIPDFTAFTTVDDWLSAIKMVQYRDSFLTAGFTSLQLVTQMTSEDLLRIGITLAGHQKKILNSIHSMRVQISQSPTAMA

EphB2 [6] = target: T2, EphB2; experiment: Ambit kinase profiling; type: binding
EPHB3 = EPHB3 (Homo sapiens (Human), UniProt P54753); experiment: Ambit kinase profiling; type: binding
Sequence of EPHB3 (P54753 34-998): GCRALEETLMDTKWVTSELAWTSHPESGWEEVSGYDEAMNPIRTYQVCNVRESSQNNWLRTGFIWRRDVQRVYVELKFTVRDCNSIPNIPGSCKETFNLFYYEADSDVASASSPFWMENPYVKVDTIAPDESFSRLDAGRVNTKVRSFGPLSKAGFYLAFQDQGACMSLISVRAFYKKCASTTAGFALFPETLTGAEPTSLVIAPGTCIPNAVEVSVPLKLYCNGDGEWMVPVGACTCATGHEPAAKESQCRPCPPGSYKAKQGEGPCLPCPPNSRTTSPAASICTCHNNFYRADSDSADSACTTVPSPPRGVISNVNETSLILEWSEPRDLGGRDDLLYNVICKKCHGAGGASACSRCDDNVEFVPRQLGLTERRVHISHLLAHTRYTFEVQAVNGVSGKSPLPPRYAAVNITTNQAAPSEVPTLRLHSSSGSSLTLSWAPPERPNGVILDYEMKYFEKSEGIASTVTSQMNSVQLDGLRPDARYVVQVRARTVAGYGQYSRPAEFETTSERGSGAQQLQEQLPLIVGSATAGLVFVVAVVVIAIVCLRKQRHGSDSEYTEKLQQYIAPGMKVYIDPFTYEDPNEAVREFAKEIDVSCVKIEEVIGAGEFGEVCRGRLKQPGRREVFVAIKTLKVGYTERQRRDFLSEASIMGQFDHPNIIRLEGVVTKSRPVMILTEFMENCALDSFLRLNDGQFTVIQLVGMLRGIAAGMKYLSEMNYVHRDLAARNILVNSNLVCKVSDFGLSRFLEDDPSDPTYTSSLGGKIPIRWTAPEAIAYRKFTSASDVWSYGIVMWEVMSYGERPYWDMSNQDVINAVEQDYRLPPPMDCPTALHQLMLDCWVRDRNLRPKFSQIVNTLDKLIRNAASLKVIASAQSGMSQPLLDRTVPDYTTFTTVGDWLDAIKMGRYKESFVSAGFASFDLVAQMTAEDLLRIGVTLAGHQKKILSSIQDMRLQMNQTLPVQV

EphB4 = EphB4 (Homo sapiens (Human), UniProt P54760); experiment: Ambit kinase profiling; type: binding
EPHB6 = EPHB6 (Homo sapiens (Human), UniProt O15197); experiment: Ambit kinase profiling; type: binding
panel of 442 kinases [7] = experiment: KINOMEscan selectivity profiling; type: binding; settings: 10 μM
Description: We assessed the selectivity of this scaffold using the KINOMEscan methodology across a near comprehensive panel of 442 kinases. […]

ERK5 [8] = target: T1, ERK5; experiment: KiNativ chemical proteomics profiling in HeLa and PC3 cell lysates; type: binding; settings: read-out: ERK5 inhibition (KiNativ)
Description: Compared with our previously reported ERK5 inhibitor, XMD8-92 (11, S10=0.012, 5/402), compound 26 represents a further improvement in selectivity. […] Compounds 25 and 26 were also profiled against selected panels of kinases in HeLa and PC3 cell lysates using a chemical proteomics approach, KiNativ.

Molecule: CNc1nc(Nc2ccc(C(=O)N3CCOCC3)cc2OC)ncc1Cl [HG-10-102-01, (4-((5-chloro-4-(methylamino)pyrimidin-2-yl)amino)-3-methoxyphenyl)(morpholino)methanone]
- LRRK2 inhibition as reported (LRRK2): potent LRRK2 inhibitors
- ERK5 inhibition as reported (ERK5 [1]): do not inhibit ERK5

Molecule: O=C1Nc2cnc(Nc3ccc(N4CCC(O)CC4)cc3)nc2-c2ccccc2N1Cc1c(Cl)cccc1Cl [XMD16-101-2]
- ActivX EphB2 (EphB2 [2]): 0.6

Molecule: COc1cc(C(=O)N2CCC(N3CCN(C)CC3)CC2)ccc1Nc1ncc2c(n1)-c1ccccc1N(Cc1ccccc1Cl)C(=O)N2C [XMD16-123-1]
- ActivX EphB2 (EphB2 [2]): 2.5

Molecule: COc1cc(C(=O)N2CCC(N3CCN(C)CC3)CC2)ccc1Nc1ncc2c(n1)-c1ccccc1N(C1CCOCC1)C(=O)N2 [XMD16-128]
- EphA2 Activity (% Inhibition at 10 micromolar) (EphA2 [3]): −5.1% and −8.2%
- ActivX EphB2 (EphB2 [2]): 4.5

Molecule: COc1cc(C(=O)N2CCC(N3CCN(C)CC3)CC2)ccc1Nc1ncc2c(n1)-c1ccccc1N(Cc1ccccc1C)C(=O)N2C [XMD16-125]
- ActivX EphB2 (EphB2 [2]): 0.9

Molecule: CN1C(=O)N(C2CCCC2)c2ccccc2-c2nc(Nc3ccc(N4CCC(O)CC4)cc3)ncc21 [AB-1-24]
- ActivX EphB2 (EphB2 [2]): 6.8

Molecule: XMD8-92
- KINOMEscan selectivity score S10 (panel of 442 kinases [4]; previously reported, 5/402 kinases): 0.012

Molecule: COc1cc(C(=O)N2CCC(N3CCN(C)CC3)CC2)ccc1Nc1ncc2c(n1)N(C)c1ccccc1C(=O)N2C [LRRK2-IN-1]
- KINOMEscan selectivity score S10 (panel of 442 kinases [4]; previous LRRK2 inhibitor, 16/442): 0.036

Molecule: O=C1Nc2ccccc2-c2nc(Nc3ccc(N4CCC(O)CC4)cc3)ncc2N1 [XMD16-95]
- ActivX EphB2 (EphB2 [2]): 97.2

Molecule: COc1cc(C(=O)N2CCC(N3CCN(C)CC3)CC2)ccc1Nc1ncc2c(n1)-c1ccccc1N(Cc1ccccc1C)C(=O)N2 [XMD16-121]
- ActivX EphB2 (EphB2 [2]): 12.2

Molecule: O=C1Nc2cnc(Nc3ccc(N4CCC(O)CC4)cc3)nc2-c2ccccc2N1C1CCCC1 [AB-1-17]
- ActivX EphB2 (EphB2 [2]): 21.5

Molecule: COc1cc(N2CCN(C)CC2)ccc1Nc1ncc2c(n1)-c1ccccc1N(C1CCCC1)C(=O)N2 [AB-1-15]
- ActivX EphB2 (EphB2 [2]): 5.2

Molecule: COc1cc(C(=O)N2CCC(N3CCN(C)CC3)CC2)ccc1Nc1ncc2c(n1)N(C1CCCC1)c1ccccc1C(=O)N2C [Compound 25]
- KINOMEscan selectivity score S10 (panel of 442 kinases [7]): 0.018
- inhibition at 10 µM (ERK5 [8]): > 90%

Molecule: COc1cc(C(=O)N2CCC(N3CCN(C)CC3)CC2)ccc1Nc1ncc2c(n1)-c1ccccc1NC(=O)N2 [XMD16-120]
- ActivX EphB2 (EphB2 [2]): 60.1

Molecule: O=C(Nc1cccnc1)c1cc(-c2ccnc(F)c2)ccc1OCc1ccccc1 [GSK2578215A, 2-arylmethyloxy-5-subtitutent-N-arylbenzamide]
- LRRK2 inhibition as reported (LRRK2): potent LRRK2 inhibitors
- ERK5 inhibition as reported (ERK5 [1]): do not inhibit ERK5

Second part, the molecule after the results:

- ActivX EphB2 (EphB2 [2]): −13
Molecule: CN1C(=O)N(Cc2ccccc2Cl)c2ccccc2-c2nc(Nc3ccc(N4CCC(O)CC4)cc3)ncc21 [XMD16-122-1]

- ActivX EphB2 (EphB2 [2]): −20.9
Molecule: COc1cc(C(=O)N2CCC(N3CCN(C)CC3)CC2)ccc1Nc1ncc2c(n1)-c1ccccc1N(C)C(=O)N2C [XMD16-118]

- ActivX EphB2 (EphB2 [2]): 6.1
Molecule: O=C1Nc2cnc(Nc3ccc(N4CCC(O)CC4)cc3)nc2-c2ccccc2N1Cc1ccccc1Cl [XMD16-101-1]

- ActivX EphB2 (EphB2 [2]): −5.5
Molecule: CN1C(=O)N(Cc2c(Cl)cccc2Cl)c2ccccc2-c2nc(Nc3ccc(N4CCC(O)CC4)cc3)ncc21 [XMD16-122-2]

- ActivX EphB2 (EphB2 [2]): 7
Molecule: COc1cc(N2CCN(C)CC2)ccc1Nc1ncc2c(n1)-c1ccccc1N(C1CCOCC1)C(=O)N2 [AB-1-16]

- ActivX EphB2 (EphB2 [2]): 19.8
- Ambit EPHA1 (EphA1): 69
- Ambit EPHA2 (EphA2 [5]): 100
- Ambit EPHA3 (EPHA3): 47
- Ambit EPHA4 (EPHA4): 84
- Ambit EPHA5 (EPHA5): 91
- Ambit EPHA8 (EPHA8): 92 and 100
- Ambit EPHA7 (EphA7): 100
- Ambit EPHB1 (EPHB1): 91
- Ambit EPHB2 (EphB2 [6]): 100
- Ambit EPHB3 (EPHB3): 93
- Ambit EPHB4 (EphB4): 91
- Ambit EPHB6 (EPHB6): 20
Molecule: CN1C(=O)N(C)c2cnc(Nc3ccc(N4CCC(O)CC4)cc3)nc2-c2ccccc21 [XMD16-117]

- ActivX EphB2 (EphB2 [2]): 18.3
- Ambit EPHA1 (EphA1): 81
- Ambit EPHA2 (EphA2 [5]): 93
- Ambit EPHA3 (EPHA3): 77
- Ambit EPHA4 (EPHA4): 89
- Ambit EPHA5 (EPHA5): 90
- Ambit EPHA8 (EPHA8): 100
- Ambit EPHA7 (EphA7): 100
- Ambit EPHB1 (EPHB1): 84
- Ambit EPHB2 (EphB2 [6]): 100
- Ambit EPHB3 (EPHB3): 93
- Ambit EPHB4 (EphB4): 99
- Ambit EPHB6 (EPHB6): 78
Molecule: Cc1ccccc1CN1C(=O)N(C)c2cnc(Nc3ccc(N4CCC(O)CC4)cc3)nc2-c2ccccc21 [XMD16-124]

- EphA2 Activity (% Inhibition at 10 micromolar) (EphA2 [3]): −1.1% and −10.5%
- ActivX EphB2 (EphB2 [2]): 2
Molecule: COc1cc(C(=O)N2CCC(N3CCN(C)CC3)CC2)ccc1Nc1ncc2c(n1)-c1ccccc1N(C1CCCC1)C(=O)N2 [XMD16-127]
